Reference: PMC6478789, “A chemical toolbox for the study of bromodomains and epigenetic signaling” (Nature Communications, 2019)

Tests used:
[1] = biological target: TAF1L(2); design: method as in ref 13 (suppl.); conditions: ITC data; ref 13 (suppl.); cited from earlier work
[2] = system: MDA-MB-436 cells; test: NAD+/NADH ratio measurement assay; format: cell-based, human; conditions: BAY-876, 5 days
Method: Cells were seeded in six-well plates followed by overnight incubation. The next day, cells were treated with DMSO or the indicated concentration of BAY-876. After 5 days, cells were lysed, and intracellular metabolites were measured using commercial kits detecting acetyl-CoA (PicoProbe, Abcam ab87546) and NAD^+/NADH ratio (Abcam 65348).

[3] = system: TNBC cells; test: Colony formation assay; format: cell-based, human; conditions: 3 µM, 2 weeks
Method: Colony formation studies were performed with TNBC cells on treatment with DMSO or the indicated concentrations of BAY-876. Cells were seeded into 6-well plates at 200 cells per well and left to adhere overnight. Then, cells were treated with DMSO or 3 µM BAY-876. After 2 weeks, the cells were stained with crystal violet and imaged.

[4] = biological target: T1, ATAD2B (Homo sapiens, UniProt Q9ULI0); design: purchased; method as in ref 18 (suppl.); conditions: ITC; ref 18 (suppl.); cited from earlier work
T1 sequence (Q9ULI0 951-1066 limits assumed): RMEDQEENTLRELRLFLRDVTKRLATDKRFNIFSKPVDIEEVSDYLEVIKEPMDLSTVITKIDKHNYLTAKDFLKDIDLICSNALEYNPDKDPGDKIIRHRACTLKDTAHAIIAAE

[5] = system: MDA-MB-436 cells; test: Confluency with BRPF inhibitors and BAY-876; format: cell-based, human; conditions: 3 μM, 7 days
Method: Graph indicates mean, error bars denote s.d. from eight wells (from two independent assays) and p-value was computed using the Benjamini-Hochberg t test; ***p < 0.001. d Immunoblot validation of BRPF knockdown in MDA-MB-436 cells. e Quantitative real-time PCR (RT-qPCR) validation of BRPF knockdown in MDA-MB-436 cells. […] Raw data images are available in Supplementary Fig. 4
TNBC cell lines were seeded in sterile, transparent 384-well plates at 500 cells per well in 50 µl media. Chemical probes were delivered in dimethyl sulfoxide (DMSO). Cell confluency at 7 days was evaluated using an Incucyte ZOOM live cell imaging device (Essen Bioscence) and analyzed with the Incucyte ZOOM (2016A) software based on phase contrast image.

[6] = biological target: GCN5; design: method as in ref 1 (suppl.), 25 (main text); conditions: ITC data; ref 1 (suppl.), 25; cited from earlier work
[7] = biological target: p300; conditions: ITC data; ref 9 (suppl.); cited from earlier work
[8] = biological target: T2, PCAF (Homo sapiens, UniProt Q92831); design: purchased; method as in ref 2 (suppl.), 26 (main text); conditions: BROMOscan; ref 2 (suppl.), 26; cited from earlier work
T2 sequence (Q92831 723-827 limits assumed): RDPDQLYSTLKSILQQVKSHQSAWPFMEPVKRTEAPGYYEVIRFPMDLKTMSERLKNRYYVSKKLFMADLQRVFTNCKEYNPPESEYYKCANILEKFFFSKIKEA

Cc1cc2c(cc1N1C(=O)c3cccc4c(CCCO)ccc(c34)C1=O)n(C)c(=O)n2C [BAY-299]
Kd [1]: 234 nM

Cc1c(NC(=O)c2cc(C(N)=O)nc3cc(F)ccc23)c(C(F)(F)F)nn1Cc1ccc(C#N)cc1 [BAY-876]
NAD+/NADH ratio [2]: increase | cell growth (colony formation) [3]: no overt effect on cell growth

CO[C@H]1CNC[C@@H](OCC2CCC(F)(F)CC2)[C@@H]1Nc1ncc(-c2cncc(C)c2)c2cc(C)c(=O)[nH]c12 [GSK8814]
Kd [4]: 10 nM

COc1cc2c(cc1NS(=O)(=O)c1ccc(Br)cc1C)n(C)c(=O)n2C [OF-1]
cell viability, co-treatment with BAY-876 [5]: strongest reduction of cell viability

Cc1nnc2c3ccccc3c(N[C@@H](C)[C@H](c3ccccc3)N(C)C)nn12 [L-Moses]
Kd [6]: 600 nM

CCC(=O)N1CCOc2c(cc(-c3ccc(OC)c(OC)c3)cc2OCC2CCCN(C)C2)C1 (centres unmarked) [I-CBP112]
Kd [7]: 625 nM

CN1C[C@H](Nc2cnn(C)c(=O)c2Br)C[C@H](c2ccccc2)C1 [GSK4027]
Kd [8]: 1.4 nM
